How the values were obtained:
Experiment in all cases: relative viability (nuclei count vs DMSO), 5 days (fraction); higher = more cells survive
[1] = compound: CN1CCN(c2ccc3nc(-c4c(N)c5c(F)cccc5[nH]c4=O)[nH]c3c2)CC1 [Dovitinib] + CC(C)C[C@H](NC(=O)[C@H](Cc1ccccc1)NC(=O)c1cnccn1)B(O)O [Bortezomib] (partner 0.002 µM)
Summary of the method: (§1)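 Five library-drug doses in √10 steps were combined with a fixed anchor-drug dose, or a single drug was given alone, by pin tool to lung cancer cell lines in 1536-well plates the day after seeding. Nuclei were stained and counted after 5 days. Relative viability is the nuclei count in treated wells over that in vehicle wells, taken as the median of duplicate plates.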

[2] = compound: CN1CCN(c2ccc3nc(-c4c(N)c5c(F)cccc5[nH]c4=O)[nH]c3c2)CC1 [Dovitinib] + CS(=O)(=O)N1CCN(Cc2cc3nc(-c4cccc5[nH]ncc45)nc(N4CCOCC4)c3s2)CC1 [Pictilisib] (partner 1 µM)
Summary of the method: as §1

[3] = compound: CN1CCN(c2ccc3nc(-c4c(N)c5c(F)cccc5[nH]c4=O)[nH]c3c2)CC1 [Dovitinib] + O=C(c1cc(Cc2n[nH]c(=O)c3ccccc23)ccc1F)N1CCN(C(=O)C2CC2)CC1 [Olaparib] (partner 8 µM)
Summary of the method: as §1

[4] = compound: CN1CCN(c2ccc3nc(-c4c(N)c5c(F)cccc5[nH]c4=O)[nH]c3c2)CC1 [Dovitinib] + CC(=O)Nc1cccc(-n2c(=O)n(C3CC3)c(=O)c3c(Nc4ccc(I)cc4F)n(C)c(=O)c(C)c32)c1 [Trametinib] (partner 0.02 µM)
Summary of the method: as §1

Cell Line | relative viability ([1]; first compound 0.02 µM) | relative viability ([1]; first compound 0.06325 µM) | relative viability ([1]; first compound 0.6325 µM) | relative viability ([1]; first compound 2 µM) | relative viability ([2]; first compound 0.02 µM) | relative viability ([2]; first compound 0.06325 µM) | relative viability ([2]; first compound 0.6325 µM) | relative viability ([2]; first compound 2 µM) | relative viability ([3]; first compound 0.02 µM) | relative viability ([3]; first compound 0.06325 µM) | relative viability ([3]; first compound 0.2 µM) | relative viability ([3]; first compound 0.6325 µM) | relative viability ([3]; first compound 2 µM) | relative viability ([4]; first compound 0.02 µM) | relative viability ([4]; first compound 0.06325 µM) | relative viability ([4]; first compound 0.2 µM) | relative viability ([4]; first compound 0.6325 µM) | relative viability ([4]; first compound 2 µM) | relative viability ([2]; first compound 0.2 µM) | relative viability ([1]; first compound 0.2 µM)
201T | 1.05 | 1.04 | 1.1 | 1.09 | 0.725 | 0.692 | 0.702 | 0.658 | 0.803 | 0.842 | 0.809 | 0.865 | 0.815 | 0.706 | 0.701 | 0.699 | 0.748 | 0.674 |  | 
A549 |  |  |  |  | 0.412 | 0.474 | 0.488 | 0.463 | 0.301 | 0.329 | 0.353 | 0.458 | 0.353 |  |  |  |  |  | 0.541 | 
A-427 | 0.87 | 0.909 | 0.93 | 1.03 | 0.724 | 0.625 | 0.585 | 0.774 | 0.711 | 0.641 | 0.773 | 0.797 | 0.822 | 0.724 | 0.705 | 0.709 | 0.768 | 0.72 | 0.573 | 0.953
ABC-1 | 0.262 | 0.34 | 0.323 | 0.315 | 0.697 | 0.664 | 0.872 | 0.78 | 0.628 | 0.664 | 0.871 | 1.09 | 0.944 |  |  |  |  |  | 0.826 | 0.306
BEN | 0.705 | 0.991 | 1.12 | 0.679 | 0.565 | 0.548 | 0.661 | 0.493 | 1.11 | 1.09 | 1.08 | 1.1 | 1.05 | 0.976 | 0.888 | 1.01 | 1.05 | 1.04 | 0.553 | 0.948
CAL-12T | 1.28 | 1 | 0.977 | 1.05 | 0.664 | 0.3 | 0.528 | 0.722 | 0.69 | 0.434 | 0.733 | 0.61 | 0.713 | 0.491 | 0.34 | 0.413 | 0.36 | 0.371 | 0.295 | 1.1
COR-L23 | 0.82 | 1.03 | 1.16 | 1.16 | 0.733 | 0.75 | 0.838 | 0.904 | 0.296 | 0.383 | 0.379 | 0.353 | 0.342 | 0.568 | 0.641 | 0.601 | 0.532 | 0.628 | 0.813 | 1.06
COR-L 105 | 0.779 | 0.666 | 0.84 | 0.965 | 0.362 | 0.356 | 0.439 | 0.529 | 0.691 | 0.712 | 0.72 | 0.765 | 0.638 | 0.533 | 0.405 | 0.441 | 0.459 | 0.577 | 0.365 | 0.86
Calu-6 | 1.05 | 0.992 | 0.993 | 0.98 | 0.931 | 0.885 | 0.893 | 1 | 0.572 | 0.578 | 0.553 | 0.571 | 0.809 |  |  |  |  |  | 0.913 | 1

Source: the supplement of paper PMC10307832
